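Five concentrations, 48 hours, 96-well plates. TGI: total growth inhibition.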
Columns and labels:
Test in all cases: NCI tumour cell line growth inhibition, 48 h
M19-MEL melanoma = tested on: M19-MEL melanoma
A549 NSCLC = tested on: A549 NSCLC
DMS 273 small cell lung = tested on: DMS 273 small cell lung
COLO 205 colon = tested on: COLO 205 colon
MOLT-4 leukemia = tested on: MOLT-4 leukemia
HCC-2998 colon = tested on: HCC-2998 colon
XF 498 CNS = tested on: XF 498 CNS
SK-MEL-28 melanoma = tested on: SK-MEL-28 melanoma
LOX IMVI melanoma = tested on: LOX IMVI melanoma
SF-295 CNS = tested on: SF-295 CNS
U251 CNS = tested on: U251 CNS
MALME-3M melanoma = tested on: MALME-3M melanoma
NCI-H23 lung = tested on: NCI-H23 lung
DLD-1 colon = tested on: DLD-1 colon
HCT-15 colon = tested on: HCT-15 colon
SK-MEL-5 melanoma = tested on: SK-MEL-5 melanoma
SNB-19 CNS = tested on: SNB-19 CNS
CCRF-CEM leukemia = tested on: CCRF-CEM leukemia
UACC-62 melanoma = tested on: UACC-62 melanoma
NCI-H522 lung = tested on: NCI-H522 lung
HT29 colon = tested on: HT29 colon
SW-620 colon = tested on: SW-620 colon
RXF 393 renal = tested on: RXF 393 renal
SNB-75 CNS = tested on: SNB-75 CNS
A498 renal = tested on: A498 renal
NCI-H226 lung = tested on: NCI-H226 lung
OVCAR-8 ovarian = tested on: OVCAR-8 ovarian
HL-60(TB) leukemia = tested on: HL-60(TB) leukemia
SK-MEL-2 melanoma = tested on: SK-MEL-2 melanoma
OVCAR-3 ovarian = tested on: OVCAR-3 ovarian
SK-OV-3 ovarian = tested on: SK-OV-3 ovarian
SR leukemia = tested on: SR leukemia
CAKI-1 renal = tested on: CAKI-1 renal
OVCAR-5 ovarian = tested on: OVCAR-5 ovarian
786-0 renal = tested on: 786-0 renal
NCI-H460 lung = tested on: NCI-H460 lung
DMS 114 small cell lung = tested on: DMS 114 small cell lung
UO-31 renal = tested on: UO-31 renal
ACHN renal = tested on: ACHN renal
LXFL 529 NSCLC = tested on: LXFL 529 NSCLC
SN12C renal = tested on: SN12C renal
EKVX NSCLC = tested on: EKVX NSCLC
SF-268 CNS = tested on: SF-268 CNS
HOP-92 NSCLC = tested on: HOP-92 NSCLC
IGROV1 ovarian = tested on: IGROV1 ovarian
KM12 colon = tested on: KM12 colon
SF-539 CNS = tested on: SF-539 CNS
UACC-257 melanoma = tested on: UACC-257 melanoma
KM20L2 colon = tested on: KM20L2 colon
HCT-116 colon = tested on: HCT-116 colon
TK-10 renal = tested on: TK-10 renal
SNB-78 CNS = tested on: SNB-78 CNS
OVCAR-4 ovarian = tested on: OVCAR-4 ovarian
HOP-62 NSCLC = tested on: HOP-62 NSCLC
K-562 leukemia = tested on: K-562 leukemia
HOP-18 NSCLC = tested on: HOP-18 NSCLC
M14 melanoma = tested on: M14 melanoma
RPMI-8226 leukemia = tested on: RPMI-8226 leukemia

In the case of `C=CCOC(C)n1c(C)c(Br)c(=O)[nH]c1=O` (stereo unspecified), the TGI (M19-MEL melanoma) was greater than 100 µM, the TGI (A549 NSCLC) was greater than 100 µM and the TGI (DMS 273 small cell lung) was greater than 100 µM. It also gave a TGI (COLO 205 colon) greater than 100 µM, a TGI (MOLT-4 leukemia) greater than 100 µM and a TGI (HCC-2998 colon) greater than 100 µM. For the same compound, the TGI (XF 498 CNS) was greater than 100 µM, the TGI (SK-MEL-28 melanoma) was greater than 100 µM and the TGI (LOX IMVI melanoma) was greater than 100 µM. The TGI (SF-295 CNS) was greater than 100 µM, the TGI (U251 CNS) was greater than 100 µM and the TGI (MALME-3M melanoma) was greater than 100 µM. The TGI (NCI-H23 lung) was greater than 100 µM, the TGI (DLD-1 colon) was greater than 100 µM and the TGI (HCT-15 colon) was greater than 100 µM. It also gave a TGI (SK-MEL-5 melanoma) greater than 100 µM, a TGI (SNB-19 CNS) greater than 100 µM and a TGI (CCRF-CEM leukemia) greater than 100 µM. The TGI (UACC-62 melanoma) was greater than 100 µM, the TGI (NCI-H522 lung) was greater than 100 µM and the TGI (HT29 colon) was greater than 100 µM. The TGI (SW-620 colon) was greater than 100 µM, the TGI (RXF 393 renal) was greater than 100 µM and the TGI (SNB-75 CNS) was greater than 100 µM. For the same compound, the TGI (A498 renal) was greater than 100 µM, the TGI (NCI-H226 lung) was greater than 100 µM and the TGI (OVCAR-8 ovarian) was greater than 100 µM. It also gave a TGI (HL-60(TB) leukemia) greater than 100 µM, a TGI (SK-MEL-2 melanoma) greater than 100 µM and a TGI (OVCAR-3 ovarian) greater than 100 µM. The TGI (SK-OV-3 ovarian) was greater than 100 µM, the TGI (SR leukemia) was greater than 100 µM and the TGI (CAKI-1 renal) was greater than 100 µM. For the same compound, the TGI (OVCAR-5 ovarian) was greater than 100 µM, the TGI (786-0 renal) was greater than 100 µM and the TGI (NCI-H460 lung) was greater than 100 µM. For the same compound, the TGI (DMS 114 small cell lung) was greater than 100 µM, the TGI (UO-31 renal) was greater than 100 µM and the TGI (ACHN renal) was greater than 100 µM. The TGI (LXFL 529 NSCLC) was greater than 100 µM, the TGI (SN12C renal) was greater than 100 µM and the TGI (EKVX NSCLC) was greater than 100 µM. For the same compound, the TGI (SF-268 CNS) was greater than 100 µM, the TGI (HOP-92 NSCLC) was greater than 100 µM and the TGI (IGROV1 ovarian) was greater than 100 µM. For the same compound, the TGI (KM12 colon) was greater than 100 µM, the TGI (SF-539 CNS) was greater than 100 µM and the TGI (UACC-257 melanoma) was greater than 100 µM. For the same compound, the TGI (KM20L2 colon) was greater than 100 µM, the TGI (HCT-116 colon) was greater than 100 µM and the TGI (TK-10 renal) was greater than 100 µM.

For `O=C1[C@H]2ON(c3ccccc3)C(c3ccc(Cl)cc3Cl)[C@H]2C(=O)N1c1ccc(Cc2ccc(N3C(=O)[C@@H]4ON(c5ccccc5)C(c5ccc(Cl)cc5Cl)[C@@H]4C3=O)cc2)cc1` (stereo partly specified), the TGI (M19-MEL melanoma) was greater than 100 µM, the TGI (A549 NSCLC) was greater than 100 µM and the TGI (DMS 273 small cell lung) was greater than 100 µM. For the same compound, the TGI (COLO 205 colon) was greater than 100 µM, the TGI (MOLT-4 leukemia) was greater than 100 µM and the TGI (HCC-2998 colon) was greater than 100 µM. For the same compound, the TGI (SK-MEL-28 melanoma) was greater than 100 µM, the TGI (SNB-78 CNS) was greater than 100 µM and the TGI (OVCAR-4 ovarian) was greater than 100 µM. It also gave a TGI (LOX IMVI melanoma) greater than 100 µM, a TGI (SF-295 CNS) greater than 100 µM and a TGI (U251 CNS) greater than 100 µM. For the same compound, the TGI (MALME-3M melanoma) was greater than 100 µM, the TGI (NCI-H23 lung) was greater than 100 µM and the TGI (DLD-1 colon) was greater than 100 µM. For the same compound, the TGI (HCT-15 colon) was greater than 100 µM, the TGI (SK-MEL-5 melanoma) was greater than 100 µM and the TGI (SNB-19 CNS) was greater than 100 µM. For the same compound, the TGI (HOP-62 NSCLC) was greater than 100 µM, the TGI (CCRF-CEM leukemia) was greater than 100 µM and the TGI (UACC-62 melanoma) was greater than 100 µM. For the same compound, the TGI (NCI-H522 lung) was greater than 100 µM, the TGI (K-562 leukemia) was greater than 100 µM and the TGI (HT29 colon) was greater than 100 µM. The TGI (SW-620 colon) was greater than 100 µM, the TGI (HOP-18 NSCLC) was greater than 100 µM and the TGI (SNB-75 CNS) was greater than 100 µM. It also gave a TGI (A498 renal) greater than 100 µM, a TGI (NCI-H226 lung) greater than 100 µM and a TGI (OVCAR-8 ovarian) greater than 100 µM. For the same compound, the TGI (HL-60(TB) leukemia) was greater than 100 µM, the TGI (SK-MEL-2 melanoma) was greater than 100 µM and the TGI (OVCAR-3 ovarian) was greater than 100 µM. For the same compound, the TGI (SK-OV-3 ovarian) was greater than 100 µM, the TGI (SR leukemia) was greater than 100 µM and the TGI (CAKI-1 renal) was greater than 100 µM. The TGI (OVCAR-5 ovarian) was greater than 100 µM, the TGI (786-0 renal) was greater than 100 µM and the TGI (NCI-H460 lung) was greater than 100 µM. The TGI (DMS 114 small cell lung) was greater than 100 µM, the TGI (UO-31 renal) was greater than 100 µM and the TGI (ACHN renal) was greater than 100 µM. For the same compound, the TGI (LXFL 529 NSCLC) was greater than 100 µM, the TGI (SN12C renal) was greater than 100 µM and the TGI (EKVX NSCLC) was greater than 100 µM. It also gave a TGI (M14 melanoma) of 69 µM, a TGI (SF-268 CNS) greater than 100 µM and a TGI (RPMI-8226 leukemia) greater than 100 µM. It also gave a TGI (HOP-92 NSCLC) greater than 100 µM, a TGI (IGROV1 ovarian) greater than 100 µM and a TGI (KM12 colon) greater than 100 µM. For the same compound, the TGI (SF-539 CNS) was greater than 100 µM, the TGI (UACC-257 melanoma) was greater than 100 µM and the TGI (KM20L2 colon) was greater than 100 µM. For the same compound, the TGI (HCT-116 colon) was greater than 100 µM and the TGI (TK-10 renal) was greater than 100 µM.

`COC(=O)C1=C(c2cc(OC)c(OC)c(OC)c2)OC(c2ccc3c(c2)OCO3)C1` (stereo unspecified) showed a TGI (M19-MEL melanoma) greater than 100 µM, a TGI (A549 NSCLC) greater than 100 µM and a TGI (DMS 273 small cell lung) greater than 100 µM. It also gave a TGI (COLO 205 colon) of 26.8 µM, a TGI (MOLT-4 leukemia) greater than 100 µM and a TGI (HCC-2998 colon) greater than 100 µM. It also gave a TGI (SK-MEL-28 melanoma) greater than 100 µM, a TGI (SNB-78 CNS) greater than 100 µM and a TGI (OVCAR-4 ovarian) greater than 100 µM. For the same compound, the TGI (LOX IMVI melanoma) was greater than 100 µM, the TGI (SF-295 CNS) was greater than 100 µM and the TGI (U251 CNS) was greater than 100 µM. For the same compound, the TGI (MALME-3M melanoma) was greater than 100 µM, the TGI (NCI-H23 lung) was 98.9 µM and the TGI (DLD-1 colon) was greater than 100 µM. For the same compound, the TGI (HCT-15 colon) was greater than 100 µM, the TGI (SK-MEL-5 melanoma) was greater than 100 µM and the TGI (SNB-19 CNS) was greater than 100 µM. It also gave a TGI (HOP-62 NSCLC) greater than 100 µM, a TGI (CCRF-CEM leukemia) greater than 100 µM and a TGI (UACC-62 melanoma) of 35.5 µM. It also gave a TGI (K-562 leukemia) greater than 100 µM, a TGI (HT29 colon) of 97.5 µM and a TGI (SW-620 colon) of 67.3 µM. It also gave a TGI (HOP-18 NSCLC) greater than 100 µM, a TGI (RXF 393 renal) greater than 100 µM and a TGI (SNB-75 CNS) greater than 100 µM. It also gave a TGI (A498 renal) of 52.2 µM, a TGI (NCI-H226 lung) greater than 100 µM and a TGI (OVCAR-8 ovarian) greater than 100 µM. It also gave a TGI (OVCAR-3 ovarian) of 81.7 µM, a TGI (SK-OV-3 ovarian) greater than 100 µM and a TGI (SR leukemia) of 62.8 µM. It also gave a TGI (CAKI-1 renal) greater than 100 µM, a TGI (OVCAR-5 ovarian) greater than 100 µM and a TGI (786-0 renal) greater than 100 µM. It also gave a TGI (NCI-H460 lung) greater than 100 µM, a TGI (DMS 114 small cell lung) of 45.7 µM and a TGI (UO-31 renal) greater than 100 µM. For the same compound, the TGI (ACHN renal) was greater than 100 µM, the TGI (LXFL 529 NSCLC) was 90 µM and the TGI (SN12C renal) was greater than 100 µM. It also gave a TGI (EKVX NSCLC) of 99.2 µM, a TGI (M14 melanoma) greater than 100 µM and a TGI (SF-268 CNS) greater than 100 µM. The TGI (RPMI-8226 leukemia) was greater than 100 µM, the TGI (HOP-92 NSCLC) was greater than 100 µM and the TGI (IGROV1 ovarian) was 29.5 µM. The TGI (KM12 colon) was greater than 100 µM, the TGI (SF-539 CNS) was greater than 100 µM and the TGI (UACC-257 melanoma) was greater than 100 µM. For the same compound, the TGI (KM20L2 colon) was 58.2 µM, the TGI (HCT-116 colon) was greater than 100 µM and the TGI (TK-10 renal) was greater than 100 µM.

Source: PubChem BioAssay (NCI)
